Assay results published in ChEMBL document CHEMBL1201862, “PubChem BioAssay data set” (2004).
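Briefly, cells in 96-well plates were exposed to five compound concentrations for 48 h, and endpoints were estimated by linear interpolation. GI50: concentration for 50% inhibition of growth.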 Activity calls are given as the source filed them. Rule as the data show it: active = GI50 up to about 1.1 µM and inactive = higher.

How the values were obtained:
Experiment in all cases: inhibition of tumour cell growth, NCI panel, 48 h
OVCAR-4 = test system: OVCAR-4
M19-MEL = test system: M19-MEL
UACC-257 = test system: UACC-257
SF-268 = test system: SF-268
CAKI-1 = test system: CAKI-1
Malme-3M = test system: Malme-3M
COLO 205 = test system: COLO 205
LXFL 529 = test system: LXFL 529
ACHN = test system: ACHN
LOX IMVI = test system: LOX IMVI
SW-620 = test system: SW-620
MOLT-4 = test system: MOLT-4
SK-OV-3 = test system: SK-OV-3
UO-31 = test system: UO-31
NCI-H226 = test system: NCI-H226
A549 = test system: A549
U-251 = test system: U-251
RXF 393 = test system: RXF 393
NCI-H460 = test system: NCI-H460
SK-MEL-2 = test system: SK-MEL-2
SF-295 = test system: SF-295
SR = test system: SR
RPMI-8226 = test system: RPMI-8226
RXF 631 = test system: RXF 631
HCT-15 = test system: HCT-15
EKVX = test system: EKVX
A498 = test system: A498
786-0 = test system: 786-0
K562 = test system: K562
OVCAR-8 = test system: OVCAR-8
SN12C = test system: SN12C
DMS-114 = test system: DMS-114
HT-29 = test system: HT-29
SK-MEL-28 = test system: SK-MEL-28
CCRF-CEM = test system: CCRF-CEM
TK-10 = test system: TK-10
HL-60 = test system: HL-60
SK-MEL-5 = test system: SK-MEL-5
NCI-H23 = test system: NCI-H23
IGROV-1 = test system: IGROV-1
SF-539 = test system: SF-539
DLD-1 = test system: DLD-1
OVCAR-3 = test system: OVCAR-3
KM12 = test system: KM12
NCI-H522 = test system: NCI-H522
HCT-116 = test system: HCT-116
SNB-78 = test system: SNB-78
KM-20L2 = test system: KM-20L2
DMS-273 = test system: DMS-273
HOP-92 = test system: HOP-92
HOP-18 = test system: HOP-18
UACC-62 = test system: UACC-62
M14 = test system: M14
SNB-19 = test system: SNB-19
HCC 2998 = test system: HCC 2998
HOP-62 = test system: HOP-62
OVCAR-5 = test system: OVCAR-5
SNB-75 = test system: SNB-75
XF498 = test system: XF498

COC1C=CC(C(=O)[N+]2=Cc3[nH]c4ccccc4c3CC2)O1 (configuration not stated)
GI50 (OVCAR-4): > 100 µM (inactive)
GI50 (M19-MEL): > 100 µM (inactive)
GI50 (UACC-257): > 100 µM (inactive)
GI50 (SF-268): > 100 µM (inactive)
GI50 (CAKI-1): > 100 µM (inactive)
GI50 (Malme-3M): > 100 µM (inactive)
GI50 (COLO 205): > 100 µM (inactive)
GI50 (LXFL 529): 98.2 µM (inactive)
GI50 (ACHN): 97.9 µM (inactive)
GI50 (LOX IMVI): > 100 µM (inactive)
GI50 (SW-620): > 100 µM (inactive)
GI50 (MOLT-4): 34.9 µM (inactive)
GI50 (SK-OV-3): 52.5 µM (inactive)
GI50 (UO-31): > 100 µM (inactive)
GI50 (NCI-H226): 80.9 µM (inactive)
GI50 (A549): > 100 µM (inactive)
GI50 (U-251): 37.9 µM (inactive)
GI50 (RXF 393): 61.5 µM (inactive)
GI50 (NCI-H460): 69.3 µM (inactive)
GI50 (SK-MEL-2): > 100 µM (inactive)
GI50 (SF-295): > 100 µM (inactive)
GI50 (SR): 30.5 µM (inactive)
GI50 (RPMI-8226): 71.1 µM (inactive)
GI50 (RXF 631): > 100 µM (inactive)
GI50 (HCT-15): 78.5 µM
GI50 (EKVX): 88.5 µM (inactive)
GI50 (A498): > 100 µM (inactive)
GI50 (786-0): > 100 µM (inactive)
GI50 (K562): 37.2 µM (inactive)
GI50 (OVCAR-8): > 100 µM (inactive)
GI50 (SN12C): > 100 µM (inactive)
GI50 (DMS-114): 66.4 µM (inactive)
GI50 (HT-29): > 100 µM (inactive)
GI50 (SK-MEL-28): > 100 µM (inactive)
GI50 (CCRF-CEM): 27.6 µM (inactive)
GI50 (TK-10): > 100 µM (inactive)
GI50 (HL-60): 32.3 µM (inactive)
GI50 (SK-MEL-5): > 100 µM (inactive)
GI50 (NCI-H23): > 100 µM (inactive)
GI50 (IGROV-1): > 100 µM (inactive)
GI50 (SF-539): > 100 µM (inactive)
GI50 (DLD-1): > 100 µM (inactive)
GI50 (OVCAR-3): 83.4 µM (inactive)
GI50 (KM12): > 100 µM (inactive)
GI50 (NCI-H522): 34.9 µM (inactive)
GI50 (HCT-116): > 100 µM (inactive)
GI50 (SNB-78): > 100 µM (inactive)
GI50 (KM-20L2): > 100 µM (inactive)
GI50 (DMS-273): 82.2 µM (inactive)
GI50 (HOP-92): > 100 µM (inactive)
GI50 (HOP-18): > 100 µM (inactive)
GI50 (UACC-62): > 100 µM (inactive)
GI50 (M14): > 100 µM (inactive)
GI50 (SNB-19): > 100 µM (inactive)
GI50 (HCC 2998): 55.6 µM (inactive)
GI50 (HOP-62): > 100 µM (inactive)
GI50 (OVCAR-5): > 100 µM (inactive)
GI50 (SNB-75): 75.3 µM (inactive)

Cc1cc2c(cc1C)[n+]([O-])c(C(=O)C/C(=N/OCCCc1ccccc1)C(=O)Nc1cc(Cl)ccc1Cl)c(C)[n+]2[O-]
GI50 (OVCAR-4): > 100 µM (inactive)
GI50 (M19-MEL): > 100 µM (inactive)
GI50 (UACC-257): > 100 µM (inactive)
GI50 (SF-268): > 100 µM (inactive)
GI50 (CAKI-1): > 100 µM (inactive)
GI50 (Malme-3M): > 100 µM (inactive)
GI50 (COLO 205): > 100 µM (inactive)
GI50 (LXFL 529): > 100 µM (inactive)
GI50 (ACHN): > 100 µM (inactive)
GI50 (LOX IMVI): > 100 µM (inactive)
GI50 (SW-620): > 100 µM (inactive)
GI50 (MOLT-4): 22.9 µM (inactive)
GI50 (SK-OV-3): > 100 µM (inactive)
GI50 (NCI-H226): > 100 µM (inactive)
GI50 (A549): > 100 µM (inactive)
GI50 (U-251): > 100 µM (inactive)
GI50 (RXF 393): > 100 µM (inactive)
GI50 (NCI-H460): > 100 µM (inactive)
GI50 (SK-MEL-2): 0.0562 µM (active)
GI50 (SF-295): > 100 µM (inactive)
GI50 (RXF 631): > 100 µM (inactive)
GI50 (HCT-15): > 100 µM
GI50 (EKVX): > 100 µM (inactive)
GI50 (A498): > 100 µM (inactive)
GI50 (786-0): > 100 µM (inactive)
GI50 (K562): > 100 µM (inactive)
GI50 (OVCAR-8): > 100 µM (inactive)
GI50 (SN12C): > 100 µM (inactive)
GI50 (HT-29): > 100 µM (inactive)
GI50 (SK-MEL-28): > 100 µM (inactive)
GI50 (CCRF-CEM): 33.3 µM (inactive)
GI50 (TK-10): > 100 µM (inactive)
GI50 (HL-60): > 100 µM (inactive)
GI50 (SK-MEL-5): > 100 µM (inactive)
GI50 (NCI-H23): > 100 µM (inactive)
GI50 (XF498): > 100 µM (inactive)
GI50 (IGROV-1): > 100 µM (inactive)
GI50 (SF-539): > 100 µM (inactive)
GI50 (DLD-1): > 100 µM (inactive)
GI50 (OVCAR-3): > 100 µM (inactive)
GI50 (KM12): > 100 µM (inactive)
GI50 (NCI-H522): > 100 µM (inactive)
GI50 (HCT-116): > 100 µM (inactive)
GI50 (SNB-78): > 100 µM (inactive)
GI50 (KM-20L2): > 100 µM (inactive)
GI50 (DMS-273): > 100 µM (inactive)
GI50 (HOP-18): > 100 µM (inactive)
GI50 (UACC-62): > 100 µM (inactive)
GI50 (M14): > 100 µM (inactive)
GI50 (SNB-19): > 100 µM (inactive)
GI50 (HCC 2998): > 100 µM (inactive)
GI50 (HOP-62): > 100 µM (inactive)
GI50 (OVCAR-5): > 100 µM (inactive)
GI50 (SNB-75): > 100 µM (inactive)
